Test results: US11149046B2, “Antibacterial sideromycins” (Hsiri Therapeutics, Inc., priority 2014, dated 2021)
Converted amounts (≈) assume the structure as drawn. Where two headings read alike, the source gives them in different places.

Tests used:
A. baumannii ATCC 17961 = assay: MIC determination; format: cell-based, Acinetobacter baumannii; settings: Acinetobacter baumannii, ATCC17961, Table 2; read-out: in vitro activity (MIC)
Source text: (§1) Table 3 that was included in the first Example 4 section provides antibacterial data for the first synthetic sideromycins we prepared and studied. The second Example 4 section elaborated and expanded on that data with inclusion of representative antibacterial data in the text and associated pictures of Petri dish assays. MIC (minimum inhibition concentration) is given in μM and AD (agar diffusion zones of inhibition are given in mm from Kirby-Bauer Petri dish growth inhibition studies).

A. baumannii ARC 3486 = assay: MIC determination; format: cell-based; settings: Acinetobacter baumannii, ARC3486; Table 2; read-out: in vitro activity (MIC)
A. baumannii ISR 14-0061 = assay: MIC determination; format: cell-based; settings: Acinetobacter baumannii, ISR140061; Table 2; read-out: in vitro activity (MIC)
[1] = test system: Burkholderia multivorans AU0100; assay: MIC determination; format: cell-based; settings: Table 2, read-out: in vitro activity (MIC)
S. Aureus ISR 14-001 = assay: MIC determination; format: cell-based; settings: Staphylococcus aureus; Table 2; read-out: in vitro activity (MIC)
S. Aureus ISR-002 = assay: MIC determination; format: cell-based; settings: Staphylococcus aureus; Table 2; read-out: in vitro activity (MIC)
E. coli DC0 = assay: MIC determination; format: cell-based; settings: Escherichia coli
Source text: as §1

[2] = test system: Pseudomonas aeruginosa 01 (Pa01); assay: MIC determination; format: cell-based; settings: Pseudomonas aeruginosa, Table 2; read-out: in vitro activity (MIC)
Source text: as §1

P. aeruginosa Pa6 = assay: Agar diffusion assay; format: cell-based, Pseudomonas aeruginosa; settings: M-HII media, 0.5 mM (ciprofloxacin 5 μg/ml), 50 uL per well, 37° C. 20 hrs, P unclear, V very unclear zone
Description: (§2) Antibiotic activity was determined using agar diffusion assays against representative Gram-negative bacteria, including Pseudomonas aeruginosa (Pa6), and several multidrug resistant forms of Acinetobacter baumannii. Representative results are shown in Table 1 and a corresponding picture of an actual petri dish showing the agar diffusion results (FIG. 4). […]. [table]

A. baumannii BAA 1710 = assay: Agar diffusion assay; format: cell-based, Acinetobacter baumannii; settings: M-HII media, 0.5 mM (ciprofloxacin 5 μg/ml), 50 uL per well, 37° C. 20 hrs, P unclear zone
Description: as §2

A. baumannii BAA 1793 = assay: Agar diffusion assay; format: cell-based, Acinetobacter baumannii; settings: M-HII media, 0.5 mM (ciprofloxacin 5 μg/ml), 50 uL per well, 37° C. 20 hrs, P unclear zone
Description: as §2

A. baumannii BAA 1797 = assay: Agar diffusion assay; format: cell-based, Acinetobacter baumannii; settings: M-HII media, 0.5 mM (ciprofloxacin 5 μg/ml), 50 uL per well, 37° C. 20 hrs, P unclear zone
Description: as §2

A. baumannii BAA 1800 = assay: Agar diffusion assay; format: cell-based, Acinetobacter baumannii; settings: M-HII media, 0.5 mM (ciprofloxacin 5 μg/ml), 50 uL per well, 37° C. 20 hrs
Description: as §2

[3] = test system: strains of Pseudomonas and Acinetobacter; assay: Antibacterial activity, general statements; format: cell-based; settings: general statements of the text
Description: Antibiotic activity was determined using agar diffusion assays against representative Gram-negative bacteria, including Pseudomonas aeruginosa (Pa6), and several multidrug resistant forms of Acinetobacter baumannii. Representative results are shown in Table 1 and a corresponding picture of an actual petri dish showing the agar diffusion results (FIG. 4). […].

[4] = test system: Acinetobacter baumannii ATCC 17961; assay: In vivo activity against Acinetobacter baumannii in mice (FIG. 7); settings: 50 mg/kg IV at 30 min and 24 hr post inoculation; IP 10^8 A. baumannii ATCC 17961; female ICR mice
Description: Y-axis is percent surviving; x-axis is days after inoculation. Note: 5/5 Vehicle and 5/5 daptomycin treated mice were all dead at Day 1; […] female ICR mice; IP inoculation with 10^8 Acinetobacter baumannii ATCC 17961; Treatment administered IV at 30 min and 24 hr post inoculation; Treatments—Ciprofloxacin 50 mg/kg, HT-10100 mg/kg, HT-10 50 mg/kg, HT-10 25 mg/kg, HT-10 10 mg/kg, HT-10 5 mg/kg, daptomycin 50 mg/kg, Vehicle.

[5] = test system: multi-drug resistant Acinetobacter; assay: Dose dependent agar diffusion (FIG. 5); format: cell-based
Source text: Note Daptomycin is not active (arrow),

SMILES | MIC (A. baumannii ATCC 17961) [µM] | MIC (A. baumannii ARC 3486) [µM] | MIC (A. baumannii ISR 14-0061) [µM] | MIC [1] [µM] | MIC (S. Aureus ISR 14-001) [µM] | MIC (S. Aureus ISR-002) [µM] | MIC [2] [µM] | antibacterial activity (in words) [3] | also measured
O=C(O)c1cn(C2CC2)c2cc(N3CCNCC3)c(F)cc2c1=O [ciprofloxacin, reference compound] | 0.2 (≈ 0.0663 µg/mL) | > 5 | > 5 | > 5 | 0.2 (≈ 0.0663 µg/mL) | > 5 | 0.2 (≈ 0.0663 µg/mL) | completely inactive | MIC (E. coli DC0; DC0, Table 2, printed E. coli DCO, read-out: in vitro activity (MIC)): 0.2 µM (≈ 0.0663 µg/mL); Zone of Growth Inhibition (P. aeruginosa Pa6): 0 mm; Zone of Growth Inhibition (A. baumannii BAA 1710): 0 mm; Zone of Growth Inhibition (A. baumannii BAA 1793): 0 mm; Zone of Growth Inhibition (A. baumannii BAA 1797): 0 mm; Zone of Growth Inhibition (A. baumannii BAA 1800): 0 mm
CCCCCCCCCC(=O)N[C@@H](Cc1c[nH]c2ccccc12)C(=O)N[C@H](CC(N)=O)C(=O)N[C@@H](CC(=O)O)C(=O)N[C@@H]1C(=O)NCC(=O)N[C@@H](CCCN)C(=O)N[C@@H](CC(=O)O)C(=O)N[C@H](C)C(=O)N[C@@H](CC(=O)O)C(=O)NCC(=O)N[C@H](CO)C(=O)N[C@@H]([C@H](C)CC(=O)O)C(=O)N[C@@H](CC(=O)c2ccccc2N)C(=O)O[C@@H]1C [daptomycin] | > 100 | > 200 | > 100 | > 100 | 0.8 (≈ 1.3 µg/mL) | 0.8 (≈ 1.3 µg/mL) | > 100 | completely inactive | MIC (E. coli DC0; DC0, read-out: in vitro activity (MIC)): > 100 µM; zone of inhibition at 500 µM (P. aeruginosa Pa6; Pseudomonas aeruginosa, PA6, read-out: Zone of Growth Inhibition): 0 mm; zone of inhibition at 500 µM (A. baumannii BAA 1710; Acinetobacter baumannii, BAA1710, read-out: Zone of Growth Inhibition): 0 mm; zone of inhibition at 500 µM (A. baumannii BAA 1793; Acinetobacter baumannii, BAA1793, read-out: Zone of Growth Inhibition): 0 mm; zone of inhibition at 500 µM (A. baumannii BAA 1797; Acinetobacter baumannii, BAA1797, read-out: Zone of Growth Inhibition): 0 mm; zone of inhibition at 500 µM (A. baumannii BAA 1800; Acinetobacter baumannii, BAA1800, read-out: Zone of Growth Inhibition): 0 mm; treated mice dead at Day 1 [4]: 5/5; in vitro activity (in words) [5]: not active
